Data from patent US20250276964A1 (Novartis AG, priority 2021, published 2025).

Biological target: T1, WIZ (Homo sapiens, UniProt O95785+Q96SW2)
T1 construct: expressed in transfected cells
Test: Quantification of WIZ protein levels in HiBit tag fusion protein assay (WIZ HiBit assay in 293T cells)
Format: cell-based
Details: for Dmax at 25 µM / remaining activity at 25 µM: HEK-293T; for Dmax at 25 µM: 100 minus Amax at 25 uM, read-out: % degradation of WIZ (100-Amax); for remaining activity at 25 µM: DMSO-normalized, curve-fitted percentage of WIZ-HiBit remaining at 25 uM, read-out: WIZ Amax; for DC50: WIZ HiBit assay in 293T cells, 10-point, 5-fold dilution, highest concentration 25 μM, about 18 hours, read-out: WIZ AC50
How it was run: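 293T cells stably carrying single-copy HiBit-WIZ (HSVTK promoter) treated ~18 h at 37 °C with 10-point, 5-fold dilutions, top 25 μM. Lytic HiBit luminescence read; Amax is DMSO-normalised, curve-fitted % WIZ-HiBit remaining at 25 uM.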

T1 sequence (O95785 whole entry): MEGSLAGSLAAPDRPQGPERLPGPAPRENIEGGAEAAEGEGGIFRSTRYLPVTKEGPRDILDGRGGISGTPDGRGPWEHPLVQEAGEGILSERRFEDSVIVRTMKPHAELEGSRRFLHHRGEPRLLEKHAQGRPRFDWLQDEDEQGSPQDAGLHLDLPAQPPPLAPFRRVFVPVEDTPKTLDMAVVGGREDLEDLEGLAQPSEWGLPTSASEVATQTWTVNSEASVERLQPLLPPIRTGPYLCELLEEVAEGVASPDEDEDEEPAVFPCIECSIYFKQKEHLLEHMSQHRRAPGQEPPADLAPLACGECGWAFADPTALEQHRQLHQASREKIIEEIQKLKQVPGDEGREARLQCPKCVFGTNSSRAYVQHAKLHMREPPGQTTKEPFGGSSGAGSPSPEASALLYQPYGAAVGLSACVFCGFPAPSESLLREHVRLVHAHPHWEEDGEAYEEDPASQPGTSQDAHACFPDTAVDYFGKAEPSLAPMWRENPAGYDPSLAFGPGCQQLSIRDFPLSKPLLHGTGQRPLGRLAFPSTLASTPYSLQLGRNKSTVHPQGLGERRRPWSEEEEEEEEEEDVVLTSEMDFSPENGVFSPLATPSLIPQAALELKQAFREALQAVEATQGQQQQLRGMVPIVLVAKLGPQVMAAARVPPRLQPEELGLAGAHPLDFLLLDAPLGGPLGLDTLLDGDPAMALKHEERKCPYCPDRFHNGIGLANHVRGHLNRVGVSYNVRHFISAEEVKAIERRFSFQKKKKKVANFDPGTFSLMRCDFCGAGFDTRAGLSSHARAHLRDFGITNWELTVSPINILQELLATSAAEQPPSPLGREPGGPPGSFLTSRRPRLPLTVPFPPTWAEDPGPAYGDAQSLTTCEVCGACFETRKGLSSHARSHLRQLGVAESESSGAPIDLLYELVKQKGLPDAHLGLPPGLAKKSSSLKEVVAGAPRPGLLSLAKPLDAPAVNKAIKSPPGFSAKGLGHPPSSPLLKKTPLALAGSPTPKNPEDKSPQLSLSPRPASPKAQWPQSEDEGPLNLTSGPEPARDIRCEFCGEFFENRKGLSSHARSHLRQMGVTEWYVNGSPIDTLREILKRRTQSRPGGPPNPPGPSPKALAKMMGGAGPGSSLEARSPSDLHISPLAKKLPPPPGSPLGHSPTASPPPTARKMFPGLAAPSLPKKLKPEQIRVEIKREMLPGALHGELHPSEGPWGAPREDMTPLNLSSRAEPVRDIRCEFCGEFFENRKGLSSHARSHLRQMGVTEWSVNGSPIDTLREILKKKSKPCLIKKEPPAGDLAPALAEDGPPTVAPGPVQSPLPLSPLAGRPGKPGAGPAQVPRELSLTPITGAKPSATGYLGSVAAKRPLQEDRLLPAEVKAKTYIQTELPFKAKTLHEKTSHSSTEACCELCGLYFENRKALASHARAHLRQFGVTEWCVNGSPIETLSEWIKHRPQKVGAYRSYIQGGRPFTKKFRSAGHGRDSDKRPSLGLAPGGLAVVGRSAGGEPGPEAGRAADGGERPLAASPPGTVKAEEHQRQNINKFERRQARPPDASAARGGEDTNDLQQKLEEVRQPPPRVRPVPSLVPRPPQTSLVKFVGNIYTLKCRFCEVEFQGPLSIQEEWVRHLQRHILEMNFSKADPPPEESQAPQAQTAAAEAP
T1 sequence (Q96SW2 whole entry): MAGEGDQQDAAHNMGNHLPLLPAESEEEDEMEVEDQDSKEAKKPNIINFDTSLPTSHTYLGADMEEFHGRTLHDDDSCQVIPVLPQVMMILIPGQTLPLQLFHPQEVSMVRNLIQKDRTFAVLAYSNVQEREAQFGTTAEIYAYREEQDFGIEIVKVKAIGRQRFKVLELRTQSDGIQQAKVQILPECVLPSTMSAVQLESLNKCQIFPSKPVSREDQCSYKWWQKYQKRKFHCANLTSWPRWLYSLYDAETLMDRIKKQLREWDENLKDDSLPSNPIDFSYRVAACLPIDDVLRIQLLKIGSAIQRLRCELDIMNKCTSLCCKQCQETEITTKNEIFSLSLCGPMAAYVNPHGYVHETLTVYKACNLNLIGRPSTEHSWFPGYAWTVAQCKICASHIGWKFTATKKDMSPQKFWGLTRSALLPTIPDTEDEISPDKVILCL
T1 sequence (Q16531 whole entry partner): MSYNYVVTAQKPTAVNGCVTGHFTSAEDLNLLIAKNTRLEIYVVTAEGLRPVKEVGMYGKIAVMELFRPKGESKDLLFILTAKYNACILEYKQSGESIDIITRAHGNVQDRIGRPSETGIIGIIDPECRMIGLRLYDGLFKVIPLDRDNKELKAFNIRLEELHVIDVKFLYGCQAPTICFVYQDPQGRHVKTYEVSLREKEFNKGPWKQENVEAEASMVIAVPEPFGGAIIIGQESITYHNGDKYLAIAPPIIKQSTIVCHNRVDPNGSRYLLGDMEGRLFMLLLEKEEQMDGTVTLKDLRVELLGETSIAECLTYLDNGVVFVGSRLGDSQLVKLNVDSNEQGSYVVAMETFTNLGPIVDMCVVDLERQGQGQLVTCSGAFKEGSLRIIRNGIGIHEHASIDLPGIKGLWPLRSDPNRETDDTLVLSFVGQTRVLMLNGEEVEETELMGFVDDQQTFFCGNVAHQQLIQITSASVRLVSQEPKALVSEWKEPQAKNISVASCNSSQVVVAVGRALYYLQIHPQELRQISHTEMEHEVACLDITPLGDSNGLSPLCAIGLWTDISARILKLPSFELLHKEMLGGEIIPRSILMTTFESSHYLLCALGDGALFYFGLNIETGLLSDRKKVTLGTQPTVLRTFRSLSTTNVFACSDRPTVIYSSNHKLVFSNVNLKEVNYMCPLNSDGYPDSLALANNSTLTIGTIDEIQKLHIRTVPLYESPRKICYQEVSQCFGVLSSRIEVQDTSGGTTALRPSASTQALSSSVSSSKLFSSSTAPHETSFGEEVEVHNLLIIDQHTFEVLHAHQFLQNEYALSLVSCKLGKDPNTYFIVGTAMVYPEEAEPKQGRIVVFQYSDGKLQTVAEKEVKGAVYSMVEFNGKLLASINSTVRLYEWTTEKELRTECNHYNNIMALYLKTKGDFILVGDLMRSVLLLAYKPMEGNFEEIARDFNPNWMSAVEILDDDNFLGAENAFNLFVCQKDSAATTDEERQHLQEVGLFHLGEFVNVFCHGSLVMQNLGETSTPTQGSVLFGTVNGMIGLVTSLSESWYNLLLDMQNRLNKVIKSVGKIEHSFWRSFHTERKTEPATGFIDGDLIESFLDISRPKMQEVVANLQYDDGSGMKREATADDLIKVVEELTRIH

Dmax at 25 µM [%]	remaining activity at 25 µM [%]	DC50 [µM]	SMILES
82	18	0.034	C[C@@H]1CN(S(C)(=O)=O)CCN1Cc1ccc2onc(N3CCC(=O)NC3=O)c2c1 [Example 71, (R)-1-(5-((2-methyl-4-(methylsulfonyl)piperazin-1-yl)methyl)benzo[d]isoxazol-3-yl)dihydropyrimidine-2,4(1H,3H)-dione]
81	19	0.098	CCS(=O)(=O)N1CCN(Cc2ccc3onc(N4CCC(=O)NC4=O)c3c2)[C@H](C)C1 [Example 72, (R)-1-(5-((4-(ethylsulfonyl)-2-methylpiperazin-1-yl)methyl)benzo[d]isoxazol-3-yl)dihydropyrimidine-2,4(1H,3H)-dione]
83	17	0.11	CC(C)S(=O)(=O)N1CCN(Cc2ccc3onc(N4CCC(=O)NC4=O)c3c2)[C@H](C)C1 [Example 73, (R)-1-(5-((4-(isopropylsulfonyl)-2-methylpiperazin-1-yl)methyl)benzo[d]isoxazol-3-yl)dihydropyrimidine-2,4(1H,3H)-dione]
76	24	0.437	C[C@@H]1CN(S(=O)(=O)N2CCCC2)CCN1Cc1ccc2onc(N3CCC(=O)NC3=O)c2c1 [Example 74, (R)-1-(5-((2-methyl-4-(pyrrolidin-1-ylsulfonyl)piperazin-1-yl)methyl)benzo[d]isoxazol-3-yl)dihydropyrimidine-2,4(1H,3H)-dione]
78	22	0.132	C[C@@H]1CN(C(=O)N2CCCC2)CCN1Cc1ccc2onc(N3CCC(=O)NC3=O)c2c1 [Example 75, (R)-1-(5-((2-methyl-4-(pyrrolidine-1-carbonyl)piperazin-1-yl)methyl)benzo[d]isoxazol-3-yl)dihydropyrimidine-2,4(1H,3H)-dione]
78	22	0.115	C[C@@H]1CN(C(=O)NC2CCCC2)CCN1Cc1ccc2onc(N3CCC(=O)NC3=O)c2c1 [Example 76, (R)—N-cyclopentyl-4-((3-(2,4-dioxotetrahydropyrimidin-1(2H)-yl)benzo[d]isoxazol-5-yl)methyl)-3-methylpiperazine-1-carboxamide]
80	20	0.037	C[C@@H]1CN(C2CCOCC2)CCN1Cc1ccc2onc(N3CCC(=O)NC3=O)c2c1 [Example 78, (R)-1-(5-((2-methyl-4-(tetrahydro-2H-pyran-4-yl)piperazin-1-yl)methyl)benzo[d]isoxazol-3-yl)dihydropyrimidine-2,4(1H,3H)-dione]
92	8	0.016	CC(C)N1CCN(Cc2ccc3onc(N4CCC(=O)NC4=O)c3c2)CC1 [Example 79, 1-(5-((4-isopropylpiperazin-1-yl)methyl)benzo[d]isoxazol-3-yl)dihydropyrimidine-2,4(1H,3H)-dione]
93	7	0.014	O=C1CCN(c2noc3ccc(CN4CCN(C5CCC5)CC4)cc23)C(=O)N1 [Example 80, 1-(5-((4-cyclobutylpiperazin-1-yl)methyl)benzo[d]isoxazol-3-yl)dihydropyrimidine-2,4(1H,3H)-dione]
90	10	0.026	O=C1CCN(c2noc3ccc(CN4CCN(C5CCOCC5)CC4)cc23)C(=O)N1 [Example 81, 1-(5-((4-(tetrahydro-2H-pyran-4-yl)piperazin-1-yl)methyl)benzo[d]isoxazol-3-yl)dihydropyrimidine-2,4(1H,3H)-dione]
95	5	0.077	C[C@H]1CN(Cc2ccc3onc(N4CCC(=O)NC4=O)c3c2)CCN1C1COC1 [Example 82, (S)-1-(5-((3-methyl-4-(oxetan-3-yl)piperazin-1-yl)methyl)benzo[d]isoxazol-3-yl)dihydropyrimidine-2,4(1H,3H)-dione]
83	17	0.093	CS(=O)(=O)N1CCN(Cc2ccc3onc(N4CCC(=O)NC4=O)c3c2)CC1 [Example 83, 1-(5-((4-(methylsulfonyl)piperazin-1-yl)methyl)benzo[d]isoxazol-3-yl)dihydropyrimidine-2,4(1H,3H)-dione]
82	18	0.145	CC(C)S(=O)(=O)N1CCN(Cc2ccc3onc(N4CCC(=O)NC4=O)c3c2)CC1 [Example 84, 1-(5-((4-(isopropylsulfonyl)piperazin-1-yl)methyl)benzo[d]isoxazol-3-yl)dihydropyrimidine-2,4(1H,3H)-dione]
82	18	0.218	CC(C)C(=O)N1CCN(Cc2ccc3onc(N4CCC(=O)NC4=O)c3c2)CC1 [Example 85, 1-(5-((4-isobutyrylpiperazin-1-yl)methyl)benzo[d]isoxazol-3-yl)dihydropyrimidine-2,4(1H,3H)-dione]
86	14	0.011	C[C@H]1CN(Cc2ccc3onc(N4CCC(=O)NC4=O)c3c2)CCN1CC1COC1 [Example 86, (S)-1-(5-((3-methyl-4-(oxetan-3-ylmethyl)piperazin-1-yl)methyl)benzo[d]isoxazol-3-yl)dihydropyrimidine-2,4(1H,3H)-dione]
83	17	0.006	CC[C@@H]1CN(C)CCN1Cc1ccc2onc(N3CCC(=O)NC3=O)c2c1 [Example 87, (R)-1-(5-((2-ethyl-4-methylpiperazin-1-yl)methyl)benzo[d]isoxazol-3-yl)dihydropyrimidine-2,4(1H,3H)-dione]
85	15	0.008	CC[C@@H]1CN(CC(C)C)CCN1Cc1ccc2onc(N3CCC(=O)NC3=O)c2c1 [Example 88, (R)-1-(5-((2-ethyl-4-isobutylpiperazin-1-yl)methyl)benzo[d]isoxazol-3-yl)dihydropyrimidine-2,4(1H,3H)-dione]
83	17	0.028	CC(C)[C@@H]1CN(C)CCN1Cc1ccc2onc(N3CCC(=O)NC3=O)c2c1 [Example 89, (R)-1-(5-((2-isopropyl-4-methylpiperazin-1-yl)methyl)benzo[d]isoxazol-3-yl)dihydropyrimidine-2,4(1H,3H)-dione]
85	15	0.007	CC(C)CN1CCN(Cc2ccc3onc(N4CCC(=O)NC4=O)c3c2)[C@H](C(C)C)C1 [Example 90, (R)-1-(5-((4-isobutyl-2-isopropylpiperazin-1-yl)methyl)benzo[d]isoxazol-3-yl)dihydropyrimidine-2,4(1H,3H)-dione]
81	19	0.298	CC(C)(C)OC(=O)N1CCN(Cc2ccc3onc(N4CCC(=O)NC4=O)c3c2)CC1(C)C [Example 91, tert-butyl 4-((3-(2,4-dioxotetrahydropyrimidin-1(2H)-yl)benzo[d]isoxazol-5-yl)methyl)-2,2-dimethylpiperazine-1-carboxylate]
82	18	0.004	CN1CCN(Cc2ccc3onc(N4CCC(=O)NC4=O)c3c2)CC1(C)C [Example 92, 1-(5-((3,3,4-trimethylpiperazin-1-yl)methyl)benzo[d]isoxazol-3-yl)dihydropyrimidine-2,4(1H,3H)-dione]
61	39	2.18	CC(C)(C)OC(=O)N1C[C@@H]2C[C@H]1CN2Cc1ccc2onc(N3CCC(=O)NC3=O)c2c1 [Example 93, tert-butyl (1S,4S)-5-((3-(2,4-dioxotetrahydropyrimidin-1(2H)-yl)benzo[d]isoxazol-5-yl)methyl)-2,5-diazabicyclo[2.2.1]heptane-2-carboxylate]
76	24	0.364	CN1C[C@@H]2C[C@H]1CN2Cc1ccc2onc(N3CCC(=O)NC3=O)c2c1 [Example 94]
82	18	0.188	O=C1CCN(c2noc3ccc(CN4C[C@@H]5C[C@H]4CN5CC4CCOCC4)cc23)C(=O)N1 [Example 95, 1-(5-(((1S,4S)-5-((tetrahydro-2H-pyran-4-yl)methyl)-2,5-diazabicyclo[2.2.1]heptan-2-yl)methyl)benzo[d]isoxazol-3-yl)dihydropyrimidine-2,4(1H,3H)-dione]
66	34	1.09	CC(C)(C)OC(=O)N1C[C@H]2C[C@@H]1CN2Cc1ccc2onc(N3CCC(=O)NC3=O)c2c1 [Example 96, tert-butyl (1R,4R)-5-((3-(2,4-dioxotetrahydropyrimidin-1(2H)-yl)benzo[d]isoxazol-5-yl)methyl)-2,5-diazabicyclo[2.2.1]heptane-2-carboxylate]
84	16	0.192	CN1C[C@H]2C[C@@H]1CN2Cc1ccc2onc(N3CCC(=O)NC3=O)c2c1 [Example 97]

SMILES	Dmax at 25 µM [%]	remaining activity at 25 µM [%]	DC50 [µM]
C[C@@H]1CN(C2CCC2)CCN1Cc1ccc2onc(N3CCC(=O)NC3=O)c2c1 [Example 77, (R)-1-(5-((4-cyclobutyl-2-methylpiperazin-1-yl)methyl)benzo[d]isoxazol-3-yl)dihydropyrimidine-2,4(1H,3H)-dione]	82	18	0.022
